Data: paper PMC6264142, “Microwave Assisted Organic Synthesis (MAOS) of Small Molecules as Potential HIV-1 Integrase Inhibitors” (Molecules, 2011)

Columns and labels:
[1] = target: T1, HIV-1 integrase (strand transfer step) (Human immunodeficiency virus type 1 group M subtype B, UniProt P04585); test: Strand transfer assay (ELISA); type: biochemical; conditions: concentration required to inhibit the in vitro strand transfer step by 50%; read-out: IN enzymatic activity (IC50) ST
T1 construct: To determine the susceptibility of the HIV-1 integrase enzyme towards different compounds
Text: (§1) Overall integrase assay using an enzyme-linked immunosorbent assay (ELISA): To determine the susceptibility of the HIV-1 integrase enzyme towards different compounds we used enzyme-linked immunosorbent assays. These assays use an oligonucleotide substrate of which one oligonucleotide (5’-[…]-3’) is labeled with biotin at the 3’ end and the other oligonucleotide is labeled with digoxigenin at the 5’ end. For the overall integration assay the second 5’-digoxigenin labeled oligonucleotide is (5’-[…] […]-3’). For the Strand Transfer assay the second oligonucleotide lacks GT at the 3’ end. The integrase enzyme was diluted in 750 mM NaCl, 10 mM Tris pH 7.6, 10% glycerol, and 1 mM β-mercaptoethanol. To perform the reaction, diluted integrase (4 µL, corresponding to a concentration of 1.6 µM) and annealed oligonucleotides (4 µL, 7 nM) were added in a final reaction volume of 40 µL containing 10 mM MgCl2, 5 mM DTT, 20 mM HEPES pH 7.5, 5% PEG, and 15% DMSO. The reaction was carried out for 1 h at 37 °C. Reaction products were denatured with 30 mM NaOH and detected by an immunosorbent assay on avidin-coated plates.

HIV-1 integrase = target: T2, HIV-1 integrase (Human immunodeficiency virus type 1 group M subtype B, UniProt P04585); test: Overall integrase assay (ELISA); type: biochemical; conditions: concentration required to inhibit the in vitro overall integrase activity by 50%; read-out: IN enzymatic activity (IC50) Overall
T2 construct: To determine the susceptibility of the HIV-1 integrase enzyme towards different compounds
Text: as §1

[2] = test system: HIV(IIIB) strain in MT-4 cells; test: MT-4/MTT assay, HIV-induced cytopathic effect; type: cell-based, HIV-1; conditions: for EC50: Human immunodeficiency virus 1, IIIB, MT4, 50% protection against CPE of HIV, read-out: EC50 against HIV-1 replication in cell cultures
Procedure: In vitro anti-HIV and drug susceptibility assays: The inhibitory effect of antiviral drugs on the HIV-induced cytopathic effect (CPE) in human lymphocyte MT-4 cell culture was determined by the MT-4/MTT-assay. This assay is based on the reduction of the yellow 3-(4,5-dimethylthiazol-2-yl)-2,5-diphenyltetrazolium bromide (MTT) by mitochondrial dehydrogenase of metabolically active cells to a blue formazan derivative, which can be measured spectrophotometrically. The 50% cell culture infective dose (CCID50) of the HIV(IIIB) strain was determined by titration of the virus stock using MT-4 cells. For the drug-susceptibility assays, MT-4 cells were infected with 100–300 CCID50 of the virus stock in the presence of fivefold serial dilutions of the antiviral drugs. The concentration of the various compounds that achieved 50% protection against the CPE of the different HIV strains, which is defined as the EC50, was determined. In parallel, the 50% cytotoxic concentration (CC50) was determined.

HIV-IN = test system: HIV-IN; parameters: method as in PMID 19385721, PMID 20112170; conditions: HIV-IN inhibitor; cited from earlier work

Work on `COc1cccc2c1c(C(=O)/C=C(\O)C(=O)O)cn2Cc1ccc(F)cc1` [CHI-1043, reference compound] yielded an IC50 [1] of 0.14 ± 0.11 µM and an IC50 (HIV-1 integrase) of 0.08 ± 0.003 µM.

Compound `COc1cccc2c1c(C(=O)C=C(O)C(=O)O)cn2Cc1ccccc1C` [Compound 7a, 4-[1-(2-Methylbenzyl)-4-methoxy-1H-indol-3-yl]-2-hydroxy-4-oxobut-2-enoic acid] has a melting point of 164 to 166 °C, an IC50 [1] of 1.07 ± 0.76 µM and an EC50 [2] of 1.74 µM. For the same compound, the “selectivity index (SI)” value ([2]; ratio of EC50 and CC50 values) was 43 and the IC50 (HIV-1 integrase) was 1.74 ± 1.32 µM.

`COc1cccc2c1c(C(=O)C=C(O)C(=O)O)cn2Cc1cccc(C)c1` [Compound 7b, 4-[1-(3-Methylbenzyl)-4-methoxy-1H-indol-3-yl]-2-hydroxy-4-oxobut-2-enoic acid] gave a melting point of 150 to 152 °C, an IC50 [1] of 1.36 ± 0.64 µM and an EC50 [2] of 2.14 µM. For the same compound, the IC50 (HIV-1 integrase) was 0.42 ± 0.29 µM.

Compound `COc1cccc2c1c(C(=O)C=C(O)C(=O)O)cn2Cc1ccc(C)cc1` [Compound 7c, 4-[1-(4-Methylbenzyl)-4-methoxy-1H-indol-3-yl]-2-hydroxy-4-oxobut-2-enoic acid] has a melting point of 141 to 143 °C, an IC50 [1] of 8.84 ± 5.6 µM and an IC50 (HIV-1 integrase) of 5.76 ± 1.82 µM.

`COc1cccc2c1c(C(=O)C=C(O)C(=O)O)cn2Cc1cccc(C)c1C` [Compound 7d, 4-[1-(2,3-Dimethylbenzyl)-4-methoxy-1H-indol-3-yl]-2-hydroxy-4-oxobut-2-enoic acid] gave a melting point of 160 to 162 °C, an IC50 [1] of 6.79 ± 0.64 µM and an EC50 [2] of 1.74 µM. The IC50 (HIV-1 integrase) was 2.61 ± 1.17 µM.

For `COc1cccc2c1c(C(=O)C=C(O)C(=O)O)cn2Cc1ccc(C)cc1C` [Compound 7e, 4-[1-(2,4-Dimethylbenzyl)-4-methoxy-1H-indol-3-yl]-2-hydroxy-4-oxobut-2-enoic acid], the melting point was 143 to 145 °C, the IC50 [1] was 55.9 ± 43.8 µM and the IC50 (HIV-1 integrase) was 51.8 ± 33.8 µM.

With `COc1cccc2c1c(C(=O)C=C(O)C(=O)O)cn2Cc1cc(C)ccc1C` [Compound 7f, 4-[1-(2,5-Dimethylbenzyl)-4-methoxy-1H-indol-3-yl]-2-hydroxy-4-oxobut-2-enoic acid] the melting point was 163 to 165 °C, the IC50 [1] was 9.47 ± 1.06 µM and the IC50 (HIV-1 integrase) was 3.83 ± 2.21 µM.

In the case of `COc1cccc2c1c(C(=O)C=C(O)C(=O)O)cn2Cc1c(C)cccc1C` [Compound 7g, 4-[1-(2,6-Dimethylbenzyl)-4-methoxy-1H-indol-3-yl]-2-hydroxy-4-oxobut-2-enoic acid], the melting point is reported as 173 to 175 °C, the IC50 [1] is reported as 23.5 ± 17.8 µM and the IC50 (HIV-1 integrase) is reported as 7.34 ± 1.32 µM.

`COc1cccc2c1c(C(=O)C=C(O)C(=O)O)cn2Cc1cc(C)cc(C)c1` [Compound 7h, 4-[1-(3,5-Dimethylbenzyl)-4-methoxy-1H-indol-3-yl]-2-hydroxy-4-oxobut-2-enoic acid] showed a melting point of 120 to 122 °C, an IC50 [1] of 5.49 ± 2.67 µM and an IC50 (HIV-1 integrase) of 7.69 ± 5.59 µM.

`COc1cccc2c1c(C(=O)C=C(O)C(=O)O)cn2Cc1cc(C)c(F)c(C)c1` [Compound 7i, 4-[1-(4-Fluoro-3,5-dimethylbenzyl)-4-methoxy-1H-indol-3-yl]-2-hydroxy-4-oxobut-2-enoic acid] gave a melting point of 153 to 155 °C, an IC50 [1] of 5.24 ± 1.34 µM and an IC50 (HIV-1 integrase) of 2.17 ± 1.65 µM.

In the case of `Cc1nnc(C(=O)NC(C)(C)c2nc(C(=O)NCc3ccc(F)cc3)c(O)c(=O)n2C)o1` [raltegravir], the IC50 (HIV-IN) is given as 0.0068 µM.
